ChEMBL document CHEMBL4507311, “Data for DCP probe A-1155463” (2021)

What was measured:
[1] = molecular target: Ribosomal protein S6 kinase alpha-5 (Homo sapiens) (UniProt O75582); details: Compound concentration 1000.0 nM
[2] = molecular target: Non-receptor tyrosine-protein kinase TYK2 (Homo sapiens) (UniProt P29597); details: Compound concentration 1000.0 nM
[3] = molecular target: Insulin-like growth factor 1 receptor (Homo sapiens) (UniProt P08069); details: Compound concentration 1000.0 nM
[4] = molecular target: ALK tyrosine kinase receptor (Homo sapiens) (UniProt Q9UM73); details: Compound concentration 1000.0 nM
[5] = molecular target: Aurora kinase A (Homo sapiens) (UniProt O14965); details: Compound concentration 1000.0 nM
[6] = molecular target: Serine/threonine-protein kinase NIM1 (Homo sapiens) (UniProt Q8IY84); details: Compound concentration 1000.0 nM
[7] = molecular target: Phosphatidylinositol 4,5-bisphosphate 3-kinase catalytic subunit gamma isoform (Homo sapiens) (UniProt P48736); details: Compound concentration 1000.0 nM
[8] = molecular target: cAMP-dependent protein kinase catalytic subunit PRKX (Homo sapiens) (UniProt P51817); details: Compound concentration 1000.0 nM
[9] = system: Proto-oncogene tyrosine-protein kinase receptor Ret (Homo sapiens), P07949 [M918T]; details: Compound concentration 1000.0 nM
[10] = molecular target: T1, Alpha-1B adrenergic receptor (Homo sapiens) (UniProt P35368); details: Compound concentration 10.0 uM
T1 sequence (whole entry): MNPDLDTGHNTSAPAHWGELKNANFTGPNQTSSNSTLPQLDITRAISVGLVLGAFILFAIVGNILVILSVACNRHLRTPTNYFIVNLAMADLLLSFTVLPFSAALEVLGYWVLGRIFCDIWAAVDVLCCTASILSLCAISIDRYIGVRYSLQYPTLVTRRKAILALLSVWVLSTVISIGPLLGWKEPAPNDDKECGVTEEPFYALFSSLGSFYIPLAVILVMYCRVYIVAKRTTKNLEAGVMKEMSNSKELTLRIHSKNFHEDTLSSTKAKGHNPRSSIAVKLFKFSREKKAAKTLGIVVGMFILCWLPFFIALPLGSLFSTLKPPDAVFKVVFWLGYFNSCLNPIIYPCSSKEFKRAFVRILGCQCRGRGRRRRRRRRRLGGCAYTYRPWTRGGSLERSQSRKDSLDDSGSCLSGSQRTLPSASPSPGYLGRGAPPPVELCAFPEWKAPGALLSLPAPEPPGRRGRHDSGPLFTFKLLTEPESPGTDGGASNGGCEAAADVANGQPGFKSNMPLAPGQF

[11] = molecular target: Phosphorylase b kinase gamma catalytic chain, skeletal muscle/heart isoform (Homo sapiens) (UniProt Q16816); details: Compound concentration 1000.0 nM
[12] = molecular target: Serine/threonine-protein kinase 32A (Homo sapiens) (UniProt Q8WU08); details: Compound concentration 1000.0 nM
[13] = molecular target: Cyclin-dependent kinase-like 3 (Homo sapiens) (UniProt Q8IVW4); details: Compound concentration 1000.0 nM
[14] = molecular target: Death-associated protein kinase 2 (Homo sapiens) (UniProt Q9UIK4); details: Compound concentration 1000.0 nM
[15] = molecular target: Insulin receptor (Homo sapiens) (UniProt P06213); details: Compound concentration 1000.0 nM
[16] = molecular target: Beta-2 adrenergic receptor (Homo sapiens) (UniProt P07550); details: Compound concentration 10.0 uM
[17] = system: Hepatocyte growth factor receptor (Homo sapiens), P08581 [Y1235D]; details: Compound concentration 1000.0 nM
[18] = molecular target: Dual specificity protein kinase TTK (Homo sapiens) (UniProt P33981); details: Compound concentration 1000.0 nM
[19] = organism: Rattus norvegicus; details: Compound concentration 10.0 uM
[20] = molecular target: AP2-associated protein kinase 1 (Homo sapiens) (UniProt Q2M2I8); details: Compound concentration 1000.0 nM
[21] = molecular target: Cyclin-dependent kinase 5 (Homo sapiens) (UniProt Q00535); details: Compound concentration 1000.0 nM
[22] = molecular target: Tyrosine-protein kinase ABL2 (Homo sapiens) (UniProt P42684); details: Compound concentration 1000.0 nM
[23] = molecular target: Protein kinase C eta type (Homo sapiens) (UniProt P24723); details: Compound concentration 1000.0 nM
[24] = molecular target: Dual specificity protein kinase CLK2 (Homo sapiens) (UniProt P49760); details: Compound concentration 1000.0 nM
[25] = molecular target: Non-receptor tyrosine-protein kinase TYK2 (Homo sapiens) (UniProt P29597); details: Compound concentration 1000.0 nM; remark: listed apart in the source
[26] = molecular target: Serine/threonine-protein kinase BRSK1 (Homo sapiens) (UniProt Q8TDC3); details: Compound concentration 1000.0 nM
[27] = molecular target: Serine/threonine-protein kinase PAK 5 (Homo sapiens) (UniProt Q9P286); details: Compound concentration 1000.0 nM
[28] = molecular target: D(1A) dopamine receptor (Homo sapiens) (UniProt P21728); details: Compound concentration 10.0 uM
[29] = system: Mast/stem cell growth factor receptor Kit (Homo sapiens), P10721 [D816V]; details: Compound concentration 1000.0 nM
[30] = molecular target: Serine/threonine-protein kinase MAK (Homo sapiens) (UniProt P20794); details: Compound concentration 1000.0 nM
[31] = molecular target: Cyclin-dependent kinase 9 (Homo sapiens) (UniProt P50750); details: Compound concentration 1000.0 nM
[32] = molecular target: Serine/threonine-protein kinase Nek1 (Homo sapiens) (UniProt Q96PY6); details: Compound concentration 1000.0 nM
[33] = molecular target: Serine/threonine-protein kinase ULK2 (Homo sapiens) (UniProt Q8IYT8); details: Compound concentration 1000.0 nM
[34] = GPCRScan assay: inhibition of GABA/PBR; parameters: species or system Rattus norvegicus; radioligand conc. used [nm] 0.3 – 2.0, parental cells brain tissue
[35] = system: Phosphatidylinositol 4,5-bisphosphate 3-kinase catalytic subunit alpha isoform (Homo sapiens), P42336 [M1043I]; details: Compound concentration 1000.0 nM
[36] = molecular target: Hepatocyte growth factor receptor (Homo sapiens) (UniProt P08581); details: Compound concentration 1000.0 nM
[37] = molecular target: Ribosomal protein S6 kinase beta-1 (Homo sapiens) (UniProt P23443); details: Compound concentration 1000.0 nM
[38] = system: Mast/stem cell growth factor receptor Kit (Homo sapiens), P10721 [V559D,T670I]; details: Compound concentration 1000.0 nM
[39] = molecular target: Misshapen-like kinase 1 (Homo sapiens) (UniProt Q8N4C8); details: Compound concentration 1000.0 nM

Sequence of Non-receptor tyrosine-protein kinase TYK2 (Homo sapiens) (P29597 whole entry): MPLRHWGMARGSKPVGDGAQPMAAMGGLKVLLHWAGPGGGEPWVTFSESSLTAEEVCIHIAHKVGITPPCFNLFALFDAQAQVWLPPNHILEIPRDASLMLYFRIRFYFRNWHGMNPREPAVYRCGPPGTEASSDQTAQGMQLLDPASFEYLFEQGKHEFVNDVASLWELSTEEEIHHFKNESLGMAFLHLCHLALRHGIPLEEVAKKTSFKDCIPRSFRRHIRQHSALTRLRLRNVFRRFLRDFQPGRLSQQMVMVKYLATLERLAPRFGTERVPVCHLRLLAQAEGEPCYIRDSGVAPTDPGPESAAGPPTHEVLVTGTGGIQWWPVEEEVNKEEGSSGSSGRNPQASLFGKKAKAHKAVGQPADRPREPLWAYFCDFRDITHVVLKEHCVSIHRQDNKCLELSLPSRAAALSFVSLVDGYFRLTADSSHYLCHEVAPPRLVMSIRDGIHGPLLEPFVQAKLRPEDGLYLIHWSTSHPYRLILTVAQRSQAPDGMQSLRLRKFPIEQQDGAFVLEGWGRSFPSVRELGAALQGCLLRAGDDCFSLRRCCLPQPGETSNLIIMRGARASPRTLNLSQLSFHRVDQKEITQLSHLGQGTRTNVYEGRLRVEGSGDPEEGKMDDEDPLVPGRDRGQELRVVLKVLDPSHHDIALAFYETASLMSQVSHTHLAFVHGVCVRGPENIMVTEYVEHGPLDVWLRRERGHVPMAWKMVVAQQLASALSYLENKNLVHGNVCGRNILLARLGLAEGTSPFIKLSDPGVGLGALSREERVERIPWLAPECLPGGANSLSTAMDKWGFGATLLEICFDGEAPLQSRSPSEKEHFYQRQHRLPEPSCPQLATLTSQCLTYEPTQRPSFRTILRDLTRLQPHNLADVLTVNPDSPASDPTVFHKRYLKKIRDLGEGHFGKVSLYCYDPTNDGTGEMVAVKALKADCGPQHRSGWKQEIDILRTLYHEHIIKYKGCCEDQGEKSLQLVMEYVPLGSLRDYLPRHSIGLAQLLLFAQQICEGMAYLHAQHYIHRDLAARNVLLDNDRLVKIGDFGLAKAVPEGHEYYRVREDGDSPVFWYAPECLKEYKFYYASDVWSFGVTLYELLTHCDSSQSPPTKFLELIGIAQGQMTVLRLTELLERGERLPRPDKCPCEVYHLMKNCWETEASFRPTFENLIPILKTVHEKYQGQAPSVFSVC
Sequence of Serine/threonine-protein kinase MAK (Homo sapiens) (P20794 whole entry): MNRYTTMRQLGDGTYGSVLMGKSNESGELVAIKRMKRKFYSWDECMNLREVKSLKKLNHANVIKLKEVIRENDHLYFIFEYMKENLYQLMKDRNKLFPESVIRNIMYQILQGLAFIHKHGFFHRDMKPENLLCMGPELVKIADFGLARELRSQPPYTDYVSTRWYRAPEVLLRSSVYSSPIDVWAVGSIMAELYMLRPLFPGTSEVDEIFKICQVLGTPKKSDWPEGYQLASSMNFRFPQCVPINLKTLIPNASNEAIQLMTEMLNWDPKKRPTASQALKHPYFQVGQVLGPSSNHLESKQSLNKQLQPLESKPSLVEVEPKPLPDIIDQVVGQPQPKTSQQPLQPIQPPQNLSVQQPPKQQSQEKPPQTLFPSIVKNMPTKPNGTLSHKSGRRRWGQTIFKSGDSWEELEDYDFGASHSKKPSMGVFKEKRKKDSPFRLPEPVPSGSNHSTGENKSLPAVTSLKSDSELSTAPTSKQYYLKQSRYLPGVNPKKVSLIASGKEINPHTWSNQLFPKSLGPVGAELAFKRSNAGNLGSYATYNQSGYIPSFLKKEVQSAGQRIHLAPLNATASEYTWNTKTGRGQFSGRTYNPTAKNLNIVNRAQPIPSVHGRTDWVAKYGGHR
Sequence of Serine/threonine-protein kinase Nek1 (Homo sapiens) (Q96PY6 whole entry): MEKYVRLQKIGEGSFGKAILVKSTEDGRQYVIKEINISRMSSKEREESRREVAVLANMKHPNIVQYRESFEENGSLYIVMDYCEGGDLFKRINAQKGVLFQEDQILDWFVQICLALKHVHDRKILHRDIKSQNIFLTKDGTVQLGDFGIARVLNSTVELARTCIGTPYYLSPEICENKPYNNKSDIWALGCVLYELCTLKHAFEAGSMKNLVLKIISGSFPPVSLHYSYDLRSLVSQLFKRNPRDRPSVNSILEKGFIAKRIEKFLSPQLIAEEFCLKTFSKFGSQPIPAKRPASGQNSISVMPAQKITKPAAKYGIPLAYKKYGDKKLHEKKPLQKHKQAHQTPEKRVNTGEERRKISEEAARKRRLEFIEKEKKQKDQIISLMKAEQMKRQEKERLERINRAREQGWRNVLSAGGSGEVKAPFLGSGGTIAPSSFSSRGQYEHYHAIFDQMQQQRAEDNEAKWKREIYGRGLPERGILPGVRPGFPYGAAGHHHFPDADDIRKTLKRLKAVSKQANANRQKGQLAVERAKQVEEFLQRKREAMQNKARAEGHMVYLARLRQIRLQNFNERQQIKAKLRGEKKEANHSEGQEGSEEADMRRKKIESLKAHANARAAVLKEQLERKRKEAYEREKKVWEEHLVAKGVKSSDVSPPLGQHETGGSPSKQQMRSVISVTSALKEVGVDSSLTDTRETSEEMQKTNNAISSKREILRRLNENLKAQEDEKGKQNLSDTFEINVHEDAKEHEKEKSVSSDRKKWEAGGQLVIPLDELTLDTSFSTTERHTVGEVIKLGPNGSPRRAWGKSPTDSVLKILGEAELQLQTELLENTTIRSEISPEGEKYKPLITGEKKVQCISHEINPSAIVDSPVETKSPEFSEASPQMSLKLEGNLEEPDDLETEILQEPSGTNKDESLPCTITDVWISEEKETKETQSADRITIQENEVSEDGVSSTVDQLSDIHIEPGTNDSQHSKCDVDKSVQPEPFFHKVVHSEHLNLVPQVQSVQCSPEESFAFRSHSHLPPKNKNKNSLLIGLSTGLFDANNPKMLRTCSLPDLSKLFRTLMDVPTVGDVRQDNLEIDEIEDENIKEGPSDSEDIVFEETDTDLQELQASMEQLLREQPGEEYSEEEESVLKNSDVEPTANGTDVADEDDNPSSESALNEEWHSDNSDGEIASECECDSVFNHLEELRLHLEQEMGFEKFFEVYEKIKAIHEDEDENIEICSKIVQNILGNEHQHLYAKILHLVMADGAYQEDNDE
Sequence of Aurora kinase A (Homo sapiens) (O14965 whole entry): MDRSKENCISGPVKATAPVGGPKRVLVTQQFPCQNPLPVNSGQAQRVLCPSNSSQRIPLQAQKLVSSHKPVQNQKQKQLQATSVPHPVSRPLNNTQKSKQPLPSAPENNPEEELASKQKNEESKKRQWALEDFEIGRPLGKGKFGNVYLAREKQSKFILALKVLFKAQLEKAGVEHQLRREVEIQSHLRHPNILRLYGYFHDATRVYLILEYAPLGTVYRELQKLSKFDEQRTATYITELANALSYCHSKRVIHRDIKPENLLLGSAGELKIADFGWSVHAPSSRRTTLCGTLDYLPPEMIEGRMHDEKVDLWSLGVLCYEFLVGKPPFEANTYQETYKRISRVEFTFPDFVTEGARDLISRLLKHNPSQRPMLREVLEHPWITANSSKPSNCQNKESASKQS
Sequence of Mast/stem cell growth factor receptor Kit (Homo sapiens), P10721 [D816V] (P10721 whole entry D816V): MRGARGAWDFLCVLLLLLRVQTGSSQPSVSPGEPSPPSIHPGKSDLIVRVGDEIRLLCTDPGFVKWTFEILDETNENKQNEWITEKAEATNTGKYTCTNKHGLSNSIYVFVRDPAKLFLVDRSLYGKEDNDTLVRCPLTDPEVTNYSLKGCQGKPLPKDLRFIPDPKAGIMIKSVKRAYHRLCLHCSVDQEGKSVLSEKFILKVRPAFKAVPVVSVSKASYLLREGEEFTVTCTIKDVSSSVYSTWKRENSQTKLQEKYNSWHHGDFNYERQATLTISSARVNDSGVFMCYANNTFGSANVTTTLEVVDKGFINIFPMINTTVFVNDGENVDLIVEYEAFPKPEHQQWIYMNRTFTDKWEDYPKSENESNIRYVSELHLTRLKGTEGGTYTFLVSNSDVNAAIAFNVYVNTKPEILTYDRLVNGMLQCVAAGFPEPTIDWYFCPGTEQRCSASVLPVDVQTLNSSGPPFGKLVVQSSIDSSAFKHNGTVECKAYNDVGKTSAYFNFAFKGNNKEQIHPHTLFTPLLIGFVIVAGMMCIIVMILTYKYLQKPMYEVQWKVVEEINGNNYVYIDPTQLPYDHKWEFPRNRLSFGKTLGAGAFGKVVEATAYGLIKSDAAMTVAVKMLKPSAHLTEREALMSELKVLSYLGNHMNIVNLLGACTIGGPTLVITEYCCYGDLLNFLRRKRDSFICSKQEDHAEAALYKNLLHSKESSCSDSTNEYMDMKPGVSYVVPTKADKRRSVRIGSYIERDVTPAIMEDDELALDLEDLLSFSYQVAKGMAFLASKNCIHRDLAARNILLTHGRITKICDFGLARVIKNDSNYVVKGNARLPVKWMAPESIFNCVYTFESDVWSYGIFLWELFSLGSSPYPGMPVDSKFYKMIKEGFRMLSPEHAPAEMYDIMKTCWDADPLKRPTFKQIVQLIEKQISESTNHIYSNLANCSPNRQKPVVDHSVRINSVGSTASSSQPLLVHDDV
Sequence of Ribosomal protein S6 kinase beta-1 (Homo sapiens) (P23443 whole entry, looked up): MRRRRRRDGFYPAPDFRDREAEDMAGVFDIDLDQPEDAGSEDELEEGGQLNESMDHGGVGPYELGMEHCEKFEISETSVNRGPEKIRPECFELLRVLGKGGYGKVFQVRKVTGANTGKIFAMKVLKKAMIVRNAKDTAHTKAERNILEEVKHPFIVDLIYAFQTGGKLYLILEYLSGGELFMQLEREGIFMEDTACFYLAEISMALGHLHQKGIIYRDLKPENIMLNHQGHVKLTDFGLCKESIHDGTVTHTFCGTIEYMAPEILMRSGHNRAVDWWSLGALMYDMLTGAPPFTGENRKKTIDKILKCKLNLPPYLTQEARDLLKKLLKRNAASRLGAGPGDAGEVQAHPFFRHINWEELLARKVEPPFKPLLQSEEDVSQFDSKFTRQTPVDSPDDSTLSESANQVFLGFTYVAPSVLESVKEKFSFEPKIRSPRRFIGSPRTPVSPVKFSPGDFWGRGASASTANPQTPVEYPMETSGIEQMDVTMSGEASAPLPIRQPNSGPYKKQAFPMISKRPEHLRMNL
Sequence of Mast/stem cell growth factor receptor Kit (Homo sapiens), P10721 [V559D,T670I] (P10721 whole entry V559D/T670I): as the sequence (P10721 whole entry D816V) above, with V559D, T670I, V816D counted along it

CN(C)CC#Cc1ccc(OCCCc2sc(N3CCc4cccc(C(=O)Nc5nc6ccccc6s5)c4C3)nc2C(=O)O)c(F)c1 [A-1155463] showed a residual activity [1] of 90%, a residual activity [2] of 85% and a residual activity [3] of 98%. The residual activity [4] was 100%, the residual activity [5] was 92% and the residual activity [6] was 100%. For the same compound, the residual activity [7] was 100%, the residual activity [8] was 98% and the residual activity [9] was 100%. It also gave an inhibition [10] of 0.97%, a residual activity [11] of 98% and a residual activity [12] of 100%. It also gave a residual activity [13] of 100%, a residual activity [14] of 90% and a residual activity [15] of 92%. For the same compound, the inhibition [16] was 27.1%, the residual activity [17] was 95% and the residual activity [18] was 92%. For the same compound, the inhibition [19] was 61.1%, the residual activity [20] was 91% and the residual activity [21] was 100%. It also gave a residual activity [22] of 100%, a residual activity [23] of 74% and a residual activity [24] of 83%. For the same compound, the residual activity [25] was 75%, the residual activity [26] was 100% and the residual activity [27] was 91%. It also gave an inhibition [28] of 24.6%, a residual activity [29] of 100% and a residual activity [30] of 100%. It also gave a residual activity [31] of 94%, a residual activity [32] of 100% and a residual activity [33] of 100%. The Ki [34] was 0.794 µM, the pKi [34] was 6.1 and the residual activity [35] was 96%. The residual activity [36] was 61%, the residual activity [37] was 100% and the residual activity [38] was 95%. It also gave a residual activity [39] of 88%.
